One assay has as its system HAP1 MTAP-deleted. In words: SDMA in-cell western assay, HAP1 MTAP-deleted cell line. It is filed as cell-based. Particulars: for IC50: Homo sapiens, HAP1 MTAP-deleted cell line; for MTAP Intact/Deleted Ratio: IC50 ratio HAP1 MTAP-intact / HAP1 MTAP-deleted. In outline: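 Symmetric dimethylarginine (SDMA) levels were measured by in-cell western in MTAP-null HAP1 cells, one half of an MTAP-isogenic pair whose partner line expresses endogenous MTAP. Compound potency is reported as IC50.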

The target of assay [1] is T1, PRMT5 (Homo sapiens, UniProt O14744).
T1 construct: purchased Viva (custom protein)
T1 sequence (O14744 whole entry): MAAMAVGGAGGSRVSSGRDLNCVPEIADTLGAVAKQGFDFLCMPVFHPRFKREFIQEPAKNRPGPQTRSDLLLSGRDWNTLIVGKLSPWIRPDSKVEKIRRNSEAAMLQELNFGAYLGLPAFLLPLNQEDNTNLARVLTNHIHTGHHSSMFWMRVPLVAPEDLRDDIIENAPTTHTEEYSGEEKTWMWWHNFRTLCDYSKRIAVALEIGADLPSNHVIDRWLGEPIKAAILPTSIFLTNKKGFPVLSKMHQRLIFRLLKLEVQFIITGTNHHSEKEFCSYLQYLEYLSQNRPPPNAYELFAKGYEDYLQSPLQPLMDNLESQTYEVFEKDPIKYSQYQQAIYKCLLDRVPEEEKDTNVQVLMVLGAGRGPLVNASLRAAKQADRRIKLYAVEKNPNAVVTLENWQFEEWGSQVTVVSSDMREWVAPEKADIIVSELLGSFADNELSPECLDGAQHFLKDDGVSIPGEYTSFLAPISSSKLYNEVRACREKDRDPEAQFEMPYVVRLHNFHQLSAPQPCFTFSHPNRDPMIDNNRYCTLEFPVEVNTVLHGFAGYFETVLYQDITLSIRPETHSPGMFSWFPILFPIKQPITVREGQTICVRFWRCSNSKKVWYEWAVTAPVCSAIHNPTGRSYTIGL
T1 sequence (Q9BQA1 whole entry partner): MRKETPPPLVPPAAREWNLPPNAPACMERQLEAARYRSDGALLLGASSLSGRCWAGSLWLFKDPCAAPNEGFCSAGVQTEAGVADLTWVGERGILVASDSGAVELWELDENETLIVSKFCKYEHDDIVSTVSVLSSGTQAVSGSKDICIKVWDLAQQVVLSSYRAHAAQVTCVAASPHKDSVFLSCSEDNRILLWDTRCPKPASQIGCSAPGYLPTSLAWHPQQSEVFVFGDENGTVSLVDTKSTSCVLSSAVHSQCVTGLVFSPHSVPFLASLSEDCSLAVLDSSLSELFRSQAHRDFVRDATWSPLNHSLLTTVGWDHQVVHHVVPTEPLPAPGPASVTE
The experiment in a line: PRMT5 IC50 assay in the presence of SAM as cofactor. It is filed as biochemical. In outline:
(§1)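 Three cofactor conditions are run: SAM-bound, MTA-bound and cofactor-free enzyme. IC50 is read from each; for the SAM and MTA arms it is divided by 1.5 and 13.5 respectively to give Ki.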

The test system of a further assay is HAP1 MTAP-intact. The experiment in a line: SDMA in-cell western assay, HAP1 MTAP-intact cell line. It counts as cell-based. Particulars: Homo sapiens. A digest of the protocol:
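Symmetric dimethylarginine (SDMA) levels were measured by in-cell western in an isogenic HAP1 pair, one expressing endogenous MTAP and one MTAP-null, and IC50 values were derived for each line. Compounds whose IC50 ratio between the lines is 3-fold or more are classed as MTAP-selective.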

Assay [2] addresses T1, PRMT5. In words: PRMT5 IC50 assay in the presence of MTA as cofactor. It is filed as biochemical. Particulars: for IC50: PRMT5, MTA as cofactor. A digest of the protocol: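 Each compound is tested on PRMT5 in the presence of SAM, of MTA, and without any cofactor. Ki values are then back-calculated using fixed factors of 1.5 (SAM) and 13.5 (MTA), and the two Ki values are compared as a ratio.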

Assay [3] concerns the target T1, PRMT5. The experiment in a line: PRMT5 IC50 assay with no cofactor. It counts as biochemical. In outline:
as §1

Where [4] appears, read: ratio between the Ki in the presence of SAM and the Ki in the presence of MTA.
The mark [5] stands for this setting: ratio between Ki in the presence of SAM and Ki in the presence of MTA.

Each structure is given as a SMILES string.

Usually IC50 stands for the concentration needed to halve the response being measured.

As to `CO[C@H]1CC[C@H](Nc2cc(C(=O)NC[C@H](O)CN3CCc4c(ccc(OCc5cnco5)c4C)C3)ncn2)CC1` [Compound 572, N-[(2S)-2-hydroxy-3-{5-methyl-6-[(1,3-oxazol-5-yl)methoxy]-1,2,3,4-tetrahydroisoquinolin-2-yl}propyl]-6-{[(1r,4r)-4-methoxycyclohexyl]amino}pyrimidine-4-carboxamide], the IC50 in the assay with HAP1 MTAP-deleted is at least 10000 nM; at PRMT5 [1], 500 to 5000 nM; in the assay on HAP1 MTAP-intact it was at least 10000 nM; at PRMT5 [2], 50 to 500 nM; on PRMT5 [3], at least 5000 nM. Moreover, the “MTAP Intact/Deleted Ratio” value in the assay with HAP1 MTAP-deleted is “C* (an IC50 ratio of less than 3 fold between the IC50 in the HAP1 MTAP-intact cell line and the HAP1 MTAP-deleted cell line)”. For the same molecule, at PRMT5 [2] (setting [4]), the “SAM/MTA Ratio” value was “A (a Ki ratio greater than or equal to 10 fold between the Ki in the presence of SAM and the Ki in the presence of MTA)”.

Turning to `O=C(NC[C@H](O)CN1CCc2c(Cl)c(OCc3cnco3)cc(F)c2C1)c1ccnc(NC2CCC2)c1` [Compound 279, N-[(2S)-3-[5-chloro-8-fluoro-6-(oxazol-5-ylmethoxy)-3,4-dihydro-1H-isoquinolin-2-yl]-2-hydroxy-propyl]-2-(cyclobutylamino)pyridine-4-carboxamide], the IC50 in the assay on HAP1 MTAP-deleted is 1000 to 10000 nM; on PRMT5 [1], 50 to 500 nM; in the assay on HAP1 MTAP-intact, at least 10000 nM; at PRMT5 [2], 50 to 500 nM; at PRMT5 [3] (read-out: No Co-factor IC50), at least 5000 nM. Besides, the “MTAP Intact/Deleted Ratio” value in the assay with HAP1 MTAP-deleted was “C* (an IC50 ratio of less than 3 fold between the IC50 in the HAP1 MTAP-intact cell line and the HAP1 MTAP-deleted cell line)”. Moreover, the “SAM/MTA Ratio” value at PRMT5 [2] (setting [5]) is “A (a Ki ratio greater than or equal to 10 fold between the Ki in the presence of SAM and the Ki in the presence of MTA)”.

On to `CC(=O)N1CCC(Nc2cc(C(=O)NC[C@H](O)CN3CCc4cc(OCc5ccnn5C)ccc4C3)ncn2)CC1` [Compound 140, 6-[(1-acetyl-4-piperidyl)amino]-N-[(2S)-2-hydroxy-3-[6-[(2-methylpyrazol-3-yl)methoxy]-3N-dihydro-1H-isoquinolin-2-yl]propyl]pyrimidine-4-carboxamide], for which the IC50 with HAP1 MTAP-deleted is at least 10000 nM; on PRMT5 [1], 500 to 5000 nM; in the assay with HAP1 MTAP-intact it was at least 10000 nM; on PRMT5 [2], 50 to 500 nM; at PRMT5 [3] (read-out: No Co-factor IC50), at least 5000 nM. In addition, in the assay with HAP1 MTAP-deleted, the “MTAP Intact/Deleted Ratio” value is “C* (an IC50 ratio of less than 3 fold between the IC50 in the HAP1 MTAP-intact cell line and the HAP1 MTAP-deleted cell line)”. For the same molecule, the “SAM/MTA Ratio” value at PRMT5 [2] (setting [5]) was “A (a Ki ratio greater than or equal to 10 fold between the Ki in the presence of SAM and the Ki in the presence of MTA)”.

Turning to `Cc1ncoc1COc1ccc2c(c1Br)CCN(C[C@@H](O)CNC(=O)c1ccnc(NC3CCCCC3)c1)C2` [Compound 346, (S)—N-(3-(5-bromo-6-((4-methyloxazol-5-yl)methoxy)-3N-dihydroisoquinolin-2(1H)-yl)-2-hydroxypropyl)-2-(cyclohexylamino)isonicotinamide], the IC50 in the assay with HAP1 MTAP-deleted was at least 10000 nM; on PRMT5 [1] it was 500 to 5000 nM; with HAP1 MTAP-intact, at least 10000 nM; on PRMT5 [2], 50 to 500 nM; on PRMT5 [3] (read-out: No Co-factor IC50), at least 5000 nM. Further, the “MTAP Intact/Deleted Ratio” value with HAP1 MTAP-deleted was “C* (an IC50 ratio of less than 3 fold between the IC50 in the HAP1 MTAP-intact cell line and the HAP1 MTAP-deleted cell line)”. Also, the “SAM/MTA Ratio” value at PRMT5 [2] (setting [5]) is “A (a Ki ratio greater than or equal to 10 fold between the Ki in the presence of SAM and the Ki in the presence of MTA)”.

Turning to `Cc1c(OCc2cnco2)ccc2c1CCN(C[C@@H](O)CNC(=O)c1ccnc(NC3CCN(C(=O)C4CCC4)CC3)c1)C2` [Compound 494, (S)-2-((1-(cyclobutanecarbonyl)piperidin-4-yl)amino)-N-(2-hydroxy-3-(5-methyl-6-(oxazol-5-ylmethoxy)-3N-dihydroisoquinolin-2(1H)-yl)propyl)isonicotinamide], the IC50 in the assay on HAP1 MTAP-deleted is 1000 to 10000 nM; on PRMT5 [1] it was 50 to 500 nM; with HAP1 MTAP-intact it was at least 10000 nM; at PRMT5 [2], 50 to 500 nM; against PRMT5 [3] it was 500 to 5000 nM. In addition, in the assay with HAP1 MTAP-deleted, the “MTAP Intact/Deleted Ratio” value was “B* (an IC50 ratio greater than or equal to 3 fold but lower than 10 fold between the IC50 in the HAP1 MTAP-intact cell line and the HAP1 MTAP-deleted cell line)”. Besides, the “SAM/MTA Ratio” value on PRMT5 [2] (setting [4]) was “A (a Ki ratio greater than or equal to 10 fold between the Ki in the presence of SAM and the Ki in the presence of MTA)”.

For `COCCN(C)c1nc(NC2COC2)cc(C(=O)NC[C@H](O)CN2CCc3c(ccc(OCc4ocnc4C)c3C)C2)n1` [Compound 398, N-[(2S)-2-hydroxy-3-{5-methyl-6-[(4-methyl-1,3-oxazol-5-yl)methoxy]-1,2,3,4-tetrahydroisoquinolin-2-yl}propyl]-2-[(2-methoxyethyl)(methyl)amino]-6-[(oxetan-3-yl)amino]pyrimidine-4-carboxamide], the IC50 was 1000 to 10000 nM in the assay on HAP1 MTAP-deleted; 50 to 500 nM at PRMT5 [1]; at least 10000 nM in the assay with HAP1 MTAP-intact; 50 to 500 nM on PRMT5 [2]; at least 5000 nM on PRMT5 [3] (read-out: No Co-factor IC50). For the same molecule, the “MTAP Intact/Deleted Ratio” value in the assay on HAP1 MTAP-deleted is “B* (an IC50 ratio greater than or equal to 3 fold but lower than 10 fold between the IC50 in the HAP1 MTAP-intact cell line and the HAP1 MTAP-deleted cell line)”. Moreover, the “SAM/MTA Ratio” value on PRMT5 [2] (setting [5]) is “A (a Ki ratio greater than or equal to 10 fold between the Ki in the presence of SAM and the Ki in the presence of MTA)”.

As for `Cc1c(OCc2cnn[nH]2)ccc2c1CCN(C[C@@H](O)CNC(=O)c1ccnc(NC3CCC3)c1)C2` [Compound 273, (S)—N-(3-(6-((1H-1,2,3-triazol-5-yl)methoxy)-5-methyl-3,4-dihydroisoquinolin-2(1H)-yl)-2-hydroxypropyl)-2-(cyclobutylamino)isonicotinamide], the IC50 with HAP1 MTAP-deleted was 1000 to 10000 nM; on PRMT5 [1], 500 to 5000 nM; in the assay on HAP1 MTAP-intact, at least 10000 nM; at PRMT5 [2], 500 to 5000 nM; at PRMT5 [3] (read-out: No Co-factor IC50), at least 5000 nM. Further, the “MTAP Intact/Deleted Ratio” value in the assay on HAP1 MTAP-deleted is “C* (an IC50 ratio of less than 3 fold between the IC50 in the HAP1 MTAP-intact cell line and the HAP1 MTAP-deleted cell line)”.

For `O=C(NC[C@H](O)CN1CCc2c(ccc(OCc3cnco3)c2Br)C1)c1ccnc(NC2CCC2)c1` [Compound 255, N-[(2S)-3-[5-bromo-6-(oxazol-5-ylmethoxy)-3,4-dihydro-1H-isoquinolin-2-yl]-2-hydroxy-propyl]-2-(cyclobutylamino)pyridine-4-carboxamide], the IC50 in the assay on HAP1 MTAP-deleted is at least 10000 nM; at PRMT5 [1] it was 500 to 5000 nM; with HAP1 MTAP-intact, at least 10000 nM; on PRMT5 [2], 50 to 500 nM; at PRMT5 [3] (read-out: No Co-factor IC50), at least 5000 nM. In addition, the “MTAP Intact/Deleted Ratio” value in the assay on HAP1 MTAP-deleted is “C* (an IC50 ratio of less than 3 fold between the IC50 in the HAP1 MTAP-intact cell line and the HAP1 MTAP-deleted cell line)”. Moreover, the “SAM/MTA Ratio” value on PRMT5 [2] (setting [5]) was “A (a Ki ratio greater than or equal to 10 fold between the Ki in the presence of SAM and the Ki in the presence of MTA)”.

With `CC(=O)N1CCC(Nc2cc(C(=O)NC[C@H](O)CN3CCc4c(ccc(OCc5cnco5)c4C)C3)ccn2)CC1` [Compound 517], the IC50 in the assay on HAP1 MTAP-deleted was 1000 to 10000 nM; at PRMT5 [1], 50 to 500 nM; in the assay with HAP1 MTAP-intact, at least 10000 nM; at PRMT5 [2] it was 50 to 500 nM; at PRMT5 [3], 500 to 5000 nM. Besides, the “MTAP Intact/Deleted Ratio” value in the assay with HAP1 MTAP-deleted is “B* (an IC50 ratio greater than or equal to 3 fold but lower than 10 fold between the IC50 in the HAP1 MTAP-intact cell line and the HAP1 MTAP-deleted cell line)”. Further, the “SAM/MTA Ratio” value on PRMT5 [2] (setting [4]) was “A (a Ki ratio greater than or equal to 10 fold between the Ki in the presence of SAM and the Ki in the presence of MTA)”.

In the case of `COCCN(C)c1nc(NC2COC2)cc(C(=O)NC[C@H](O)CN2CCc3cc(OCc4cnco4)ccc3C2)n1` [Compound 295, (S)—N-(2-hydroxy-3-(6-(oxazol-5-ylmethoxy)-3N-dihydroisoquinolin-2(1H)-yl)propyl)-2-((2-methoxyethyl)(methyl)amino)-6-(oxetan-3-ylamino)pyrimidine-4-carboxamide], the half-inhibitory concentration (IC50) is below 1000 nM in the assay with HAP1 MTAP-deleted; 50 to 500 nM at PRMT5 [1]; below 1000 nM in the assay with HAP1 MTAP-intact; 50 to 500 nM on PRMT5 [2]; 500 to 5000 nM at PRMT5 [3] (read-out: No Co-factor IC50). In addition, the “MTAP Intact/Deleted Ratio” value with HAP1 MTAP-deleted is “C* (an IC50 ratio of less than 3 fold between the IC50 in the HAP1 MTAP-intact cell line and the HAP1 MTAP-deleted cell line)”. The “SAM/MTA Ratio” value at PRMT5 [2] (setting [5]) was “A (a Ki ratio greater than or equal to 10 fold between the Ki in the presence of SAM and the Ki in the presence of MTA)”.

Regarding `CCCC(=O)N1CC(Nc2cc(C(=O)NC[C@H](O)CN3CCc4cc(OCc5cnco5)ccc4C3)ccn2)C1` [Compound 434], the IC50 was below 1000 nM in the assay on HAP1 MTAP-deleted; 50 to 500 nM at PRMT5 [1]; 1000 to 10000 nM with HAP1 MTAP-intact; 50 to 500 nM at PRMT5 [2]; at least 5000 nM against PRMT5 [3]. Also, the “MTAP Intact/Deleted Ratio” value in the assay on HAP1 MTAP-deleted was “C* (an IC50 ratio of less than 3 fold between the IC50 in the HAP1 MTAP-intact cell line and the HAP1 MTAP-deleted cell line)”. Moreover, the “SAM/MTA Ratio” value at PRMT5 [2] (setting [4]) was “A (a Ki ratio greater than or equal to 10 fold between the Ki in the presence of SAM and the Ki in the presence of MTA)”.
